Reference: patent publication US10246444B2, “1,2-dithiolane and dithiol compounds useful in treating mutant EGFR-mediated diseases and conditions” (Sabila Biosciences LLC, priority 2017, dated 2019)
Like-named read-outs stand apart in the source and are kept apart here.

Tests used:
EGFR WT (wild type EGFR) = EGFR WT (wild type EGFR) (Homo sapiens (Human), UniProt P00533); assay: KINOMEscan competition binding assay (Kd); conditions: read-out: Kd Activity Level (EGFR WT)
Procedure: (§1) The assay is performed by combining three components: DNA-tagged kinase; immobilized ligand; and a test compound. The ability of the test compound to compete with the immobilized ligand is measured via quantitative PCR of the DNA tag.
(§2) For most assays, kinase-tagged T7 phage strains were prepared in an E. coli host derived from the BL21 strain. E. coli were grown to log-phase and infected with T7 phage and incubated with shaking at 32° C. until lysis. The lysates were centrifuged and filtered to remove cell debris. The remaining kinases were produced in HEK-293 cells and subsequently tagged with DNA for qPCR detection. Streptavidin-coated magnetic beads were treated with biotinylated small molecule ligands for 30 minutes at room temperature to generate affinity resins for kinase assays. The liganded beads were blocked with excess biotin and washed with blocking buffer (SeaBlock (Pierce), 1% BSA, 0.05% Tween 20, 1 mM DTT) to remove unbound ligand and to reduce nonspecific binding. […] All reactions were performed in polystyrene 96-well plates in a final volume of 0.135 ml. […] The kinase concentration in the eluates was measured by qPCR.

EGFR (L858R) [1] = target: T1, EGFR (L858R) (Homo sapiens (Human), UniProt P00533, L858R); assay: KINOMEscan competition binding assay (Kd); conditions: read-out: Kd Activity Level (EGFR L858R)
Procedure: as §1, §2

EGFR WT = EGFR WT (Homo sapiens (Human), UniProt P00533); assay: KinaseSeeker rabbit reticulocyte lysate competition binding assay (IC50)
Procedure: (§3) Luminescence readout translates into a highly sensitive and robust assay with low background and minimal interference from test compounds.
(§4) 10 mM stock solutions of test compounds were serially diluted in DMSO to make assay stocks. Prior to initiating IC50 determinations, the test compounds were evaluated for false positive against split-luciferase.
(§5) For kinase assays, Cfluc-kinase was translated along with Fos-Nfluc using a cell-free system (rabbit reticulocyte lysate) at 30° C. for 90 min. 24 uL aliquot of this lysate containing either 1 uL of DMSO (for no-inhibitor control) or compound solution in DMSO was incubated for 30 minutes at room temperature followed by 1 hour in presence of a kinase specific probe. 80 uL of luciferin assay reagent was added to each solution and luminescence was immediately measured on a luminometer.
(§6) The % Activity was plotted against compound concentration and the IC50 was determined for each compound using a 7-point curve (Jester, B. W.; et. al. J. Am. Chem. Soc. 2010, 132, 11727-11735. Jester, B. W.; et. al. J. Med. Chem. 2012, 55, 1526-1537).

EGFR (L858R) [2] = target: T1, EGFR (L858R); assay: as above
Procedure: as §3, §4, §5, §6

HER2 = HER2 (Homo sapiens (Human), UniProt P04626); assay: as above
Procedure: as §3, §4, §5, §6

EGFR E746-A750del = EGFR E746-A750del (Homo sapiens (Human), UniProt P00533, DEL746-750); assay: KINOMEscan competition binding assay (Kd); conditions: KINOMEscan binding constant; read-out: Kd Activity Level (EGFR E746-A750del)
Procedure: as §1, §2

EGFR L858R/T790M = EGFR L858R/T790M (Homo sapiens (Human), UniProt P00533, L858R/T790M); assay: KINOMEscan competition binding assay (Kd); conditions: KINOMEscan binding constant; read-out: Kd Activity Level (EGFR L858R/T790M)
Procedure: as §1, §2

EGFR S752-I759del = EGFR S752-I759del (Homo sapiens (Human), UniProt P00533, DEL752-759); assay: KINOMEscan competition binding assay (Kd); conditions: KINOMEscan binding constant; read-out: Kd Activity Level (EGFR S752-I759del)
Procedure: as §1, §2

[3] = read-out: IC50 Activity level EGFR L858R, KinaseSeeker, Table 18

Chain of EGFR WT (wild type EGFR) (P00533 25-1210): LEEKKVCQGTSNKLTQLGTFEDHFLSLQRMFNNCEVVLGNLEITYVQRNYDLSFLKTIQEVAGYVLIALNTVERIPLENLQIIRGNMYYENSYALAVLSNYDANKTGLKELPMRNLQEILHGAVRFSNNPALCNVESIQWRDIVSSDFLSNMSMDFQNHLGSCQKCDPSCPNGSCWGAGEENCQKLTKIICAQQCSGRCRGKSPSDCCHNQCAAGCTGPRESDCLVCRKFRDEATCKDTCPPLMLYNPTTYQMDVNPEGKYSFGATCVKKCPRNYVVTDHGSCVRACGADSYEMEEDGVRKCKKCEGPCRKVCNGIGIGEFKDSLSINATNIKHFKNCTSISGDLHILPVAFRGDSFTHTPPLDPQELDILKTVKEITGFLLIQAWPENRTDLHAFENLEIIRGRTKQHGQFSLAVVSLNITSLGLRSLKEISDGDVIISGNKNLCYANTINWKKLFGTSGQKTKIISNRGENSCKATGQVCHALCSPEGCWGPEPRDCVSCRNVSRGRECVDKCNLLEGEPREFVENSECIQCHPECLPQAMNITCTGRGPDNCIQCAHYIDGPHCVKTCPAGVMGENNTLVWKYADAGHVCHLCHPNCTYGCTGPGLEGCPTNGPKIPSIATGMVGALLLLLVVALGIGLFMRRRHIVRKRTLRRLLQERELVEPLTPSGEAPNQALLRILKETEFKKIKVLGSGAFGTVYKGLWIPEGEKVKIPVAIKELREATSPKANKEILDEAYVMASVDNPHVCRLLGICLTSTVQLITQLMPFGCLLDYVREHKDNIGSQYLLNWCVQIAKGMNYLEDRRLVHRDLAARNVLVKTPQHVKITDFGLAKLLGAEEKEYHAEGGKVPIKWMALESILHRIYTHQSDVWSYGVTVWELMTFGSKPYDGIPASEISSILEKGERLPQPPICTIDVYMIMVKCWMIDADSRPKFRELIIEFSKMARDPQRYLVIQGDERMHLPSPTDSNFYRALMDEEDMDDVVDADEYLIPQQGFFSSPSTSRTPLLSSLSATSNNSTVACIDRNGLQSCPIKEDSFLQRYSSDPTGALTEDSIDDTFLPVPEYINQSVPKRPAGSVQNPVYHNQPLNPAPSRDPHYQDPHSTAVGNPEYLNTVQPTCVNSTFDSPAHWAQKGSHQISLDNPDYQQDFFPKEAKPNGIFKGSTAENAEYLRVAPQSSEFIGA
Chain of EGFR WT (P00533 25-1210): as above
Chain of HER2 (P04626 23-1255): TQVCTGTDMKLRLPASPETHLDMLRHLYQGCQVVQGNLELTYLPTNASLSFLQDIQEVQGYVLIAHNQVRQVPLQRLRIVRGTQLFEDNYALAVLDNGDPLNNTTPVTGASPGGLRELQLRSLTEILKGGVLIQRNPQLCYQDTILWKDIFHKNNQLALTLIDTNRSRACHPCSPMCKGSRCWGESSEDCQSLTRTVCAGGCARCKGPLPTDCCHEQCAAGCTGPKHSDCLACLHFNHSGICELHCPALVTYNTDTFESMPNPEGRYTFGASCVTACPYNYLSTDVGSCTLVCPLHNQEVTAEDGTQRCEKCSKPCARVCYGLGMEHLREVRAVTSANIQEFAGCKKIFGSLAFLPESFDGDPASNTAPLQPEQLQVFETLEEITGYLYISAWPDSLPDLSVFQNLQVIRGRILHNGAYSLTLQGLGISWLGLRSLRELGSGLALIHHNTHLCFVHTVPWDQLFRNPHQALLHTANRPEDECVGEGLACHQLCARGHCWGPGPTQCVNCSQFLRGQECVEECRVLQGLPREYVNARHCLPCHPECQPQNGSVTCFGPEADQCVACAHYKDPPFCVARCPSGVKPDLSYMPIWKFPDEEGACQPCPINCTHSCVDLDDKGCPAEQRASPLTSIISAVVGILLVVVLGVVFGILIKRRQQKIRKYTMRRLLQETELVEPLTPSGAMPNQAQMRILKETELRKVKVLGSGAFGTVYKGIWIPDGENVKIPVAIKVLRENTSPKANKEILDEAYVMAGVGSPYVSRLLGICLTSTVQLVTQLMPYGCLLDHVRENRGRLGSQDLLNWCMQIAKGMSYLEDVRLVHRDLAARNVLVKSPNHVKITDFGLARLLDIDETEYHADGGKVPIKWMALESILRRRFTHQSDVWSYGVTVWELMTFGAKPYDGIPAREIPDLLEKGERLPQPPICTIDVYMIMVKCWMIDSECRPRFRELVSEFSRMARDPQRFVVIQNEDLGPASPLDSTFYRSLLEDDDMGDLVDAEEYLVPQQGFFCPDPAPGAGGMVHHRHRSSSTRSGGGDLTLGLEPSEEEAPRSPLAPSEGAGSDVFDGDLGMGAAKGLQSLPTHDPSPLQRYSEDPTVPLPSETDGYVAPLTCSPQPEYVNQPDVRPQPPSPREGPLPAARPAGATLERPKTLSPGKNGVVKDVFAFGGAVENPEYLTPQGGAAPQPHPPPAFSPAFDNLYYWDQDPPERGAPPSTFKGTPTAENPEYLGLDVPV
Chain of EGFR L858R/T790M (P00533 25-1210 T790M/L858R): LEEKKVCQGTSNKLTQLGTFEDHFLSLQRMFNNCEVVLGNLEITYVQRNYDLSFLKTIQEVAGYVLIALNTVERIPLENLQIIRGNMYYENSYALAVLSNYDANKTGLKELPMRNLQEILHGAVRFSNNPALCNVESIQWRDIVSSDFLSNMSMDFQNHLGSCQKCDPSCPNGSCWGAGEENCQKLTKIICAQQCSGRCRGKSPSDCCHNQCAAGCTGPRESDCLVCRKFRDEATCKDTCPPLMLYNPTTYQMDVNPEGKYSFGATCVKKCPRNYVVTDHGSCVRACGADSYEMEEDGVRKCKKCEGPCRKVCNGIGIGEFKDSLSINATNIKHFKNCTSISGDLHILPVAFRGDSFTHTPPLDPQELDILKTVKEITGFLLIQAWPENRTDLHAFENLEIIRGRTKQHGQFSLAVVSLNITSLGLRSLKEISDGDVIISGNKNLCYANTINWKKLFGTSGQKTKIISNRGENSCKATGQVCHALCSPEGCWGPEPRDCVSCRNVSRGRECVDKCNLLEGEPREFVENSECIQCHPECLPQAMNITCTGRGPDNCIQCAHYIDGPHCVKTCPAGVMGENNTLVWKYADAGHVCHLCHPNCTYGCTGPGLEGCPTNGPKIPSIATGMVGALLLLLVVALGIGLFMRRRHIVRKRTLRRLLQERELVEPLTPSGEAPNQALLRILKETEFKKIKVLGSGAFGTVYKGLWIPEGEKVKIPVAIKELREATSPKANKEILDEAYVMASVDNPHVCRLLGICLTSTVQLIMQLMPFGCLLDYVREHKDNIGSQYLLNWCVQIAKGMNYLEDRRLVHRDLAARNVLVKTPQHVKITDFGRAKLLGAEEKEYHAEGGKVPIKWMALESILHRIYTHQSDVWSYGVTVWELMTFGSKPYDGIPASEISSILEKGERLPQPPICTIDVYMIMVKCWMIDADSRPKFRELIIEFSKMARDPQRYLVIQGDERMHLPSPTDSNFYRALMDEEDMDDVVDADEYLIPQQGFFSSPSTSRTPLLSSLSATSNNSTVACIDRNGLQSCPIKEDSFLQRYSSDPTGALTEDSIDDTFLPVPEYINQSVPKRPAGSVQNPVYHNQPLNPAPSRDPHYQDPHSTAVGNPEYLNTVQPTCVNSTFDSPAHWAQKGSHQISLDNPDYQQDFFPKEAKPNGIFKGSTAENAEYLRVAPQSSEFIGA
Chain of EGFR S752-I759del (P00533 other isoform, or with tags, fused parts or gaps del 1-668/del 752-759/del 1012-1210 limits assumed): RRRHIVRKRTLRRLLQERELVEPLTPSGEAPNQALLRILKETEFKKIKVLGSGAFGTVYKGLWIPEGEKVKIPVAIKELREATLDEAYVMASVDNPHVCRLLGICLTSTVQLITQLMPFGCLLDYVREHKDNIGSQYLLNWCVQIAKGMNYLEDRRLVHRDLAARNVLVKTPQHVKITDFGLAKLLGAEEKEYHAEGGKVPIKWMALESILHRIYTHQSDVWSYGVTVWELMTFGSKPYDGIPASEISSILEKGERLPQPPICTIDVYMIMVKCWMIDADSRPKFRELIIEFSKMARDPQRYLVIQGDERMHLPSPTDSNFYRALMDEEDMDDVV

| Kd (EGFR WT (wild type EGFR)) | Kd (EGFR (L858R) [1]) | IC50 (EGFR WT) | IC50 (EGFR (L858R) [2]) | IC50 (HER2) | Structure (SMILES) | further results |
| --- | --- | --- | --- | --- | --- | --- |
| 1 to 99 nM | 1 to 99 nM |  |  |  | CC1(C)OC[C@H](COc2cc3ncc(C#N)c(Nc4ccc(OCc5cccc(F)c5)c(Cl)c4)c3cc2NC(=O)C[C@@H]2CCSS2)O1 (single isomer, unassigned; isomer 1) [80 isomer 1] |  |
| 1 to 99 nM | 1 to 99 nM |  |  |  | CC1(C)OC[C@@H](COc2cc3ncc(C#N)c(Nc4ccc(OCc5cccc(F)c5)c(Cl)c4)c3cc2NC(=O)CC2CCSS2)O1 (single isomer, unassigned; isomer 1) [84 isomer 1] |  |
| 1 to 99 nM | 1 to 99 nM |  |  |  | CC1(C)OC[C@H](COc2cc3ncc(C#N)c(Nc4ccc(OCc5cccc(F)c5)c(Cl)c4)c3cc2NC(=O)C[C@H]2CCSS2)O1 (single isomer, unassigned; isomer 2) [80 isomer 2] |  |
| 1 to 99 nM | 1 to 99 nM |  |  |  | CC1(C)OC[C@H](COc2cc3ncc(C#N)c(Nc4ccc(OCc5cccc(F)c5)c(Cl)c4)c3cc2NC(=O)CC2CCSS2)O1 (single isomer, unassigned; isomer 2) [84 isomer 2] |  |
|  |  | 100 to 999 nM | 100 to 999 nM | 100 to 999 nM | CCOc1cc2ncc(C#N)c(Nc3ccc(F)c(Cl)c3)c2cc1NC(=O)C1CSSC1 [Example 31, N-(4-((3-Chloro-4-fluorophenyl)amino)-3-cyano-7-ethoxyquinolin-6-yl)-1,2-dithiolane-4-carboxamide] |  |
| 1 to 99 nM | 1 to 99 nM |  | 1 to 99 nM |  | CCOc1cc2ncc(C#N)c(Nc3ccc(F)c(Cl)c3)c2cc1NC(=O)C1CCSS1 (stereo not shown) [Example 33, N-(4-((3-Chloro-4-fluorophenyl)amino)-3-cyano-7-ethoxyquinolin-6-yl)-1,2-dithiolane-3-carboxamide] |  |
| 1 to 99 nM | 1 to 99 nM | 100 to 999 nM | 1 to 99 nM | 100 to 999 nM | CCOc1cc2ncc(C#N)c(Nc3ccc(OCc4cccc(F)c4)c(Cl)c3)c2cc1NC(=O)C1CSSC1 [Example 36, N-(4-((3-Chloro-4-((3-fluorobenzyl)oxy)phenyl)amino)-3-cyano-7-ethoxyquinolin-6-yl)-1,2-dithiolane-4-carboxamide] | Kd (EGFR E746-A750del): 1 to 99 nM; Kd (EGFR L858R/T790M): > 10000 nM; Kd (EGFR S752-I759del): 1 to 99 nM |
|  |  |  | 1000 to 10000 nM |  | CCOc1cc2ncc(C#N)c(Nc3ccc(F)c(Cl)c3)c2cc1NC(=O)CC(CCSCc1ccccc1)SCc1ccccc1 (stereo not shown) [Example 38, 3,5-Bis(benzylthio)-N-(4-((3-chloro-4-fluorophenyl)amino)-3-cyano-7-ethoxyquinolin-6-yl)pentanamide] |  |
|  |  |  | 100 to 999 nM |  | CCOc1cc2ncc(C#N)c(Nc3ccc(F)c(Cl)c3)c2cc1NC(=O)CC1CCSS1 (stereo not shown) [Example 39, N-(4-((3-Chloro-4-fluorophenyl)amino)-3-cyano-7-ethoxyquinolin-6-yl)-2-(1,2-dithiolan-3-yl)acetamide] |  |
|  |  | 100 to 999 nM | 100 to 999 nM | 100 to 999 nM | CCOc1cc2ncc(C#N)c(Nc3ccc(F)c(Cl)c3)c2cc1NC(=O)CCCCC1CCSS1 (stereo not shown) [Example 42, N-(4-(3-Chloro-4-fluorophenylamino)-3-cyano-7-ethoxyquinolin-6-yl)-5-(1,2-dithiolan-3-yl)pentanamide] |  |
|  |  |  | 1 to 99 nM |  | CCOc1cc2ncc(C#N)c(Nc3ccc(OCc4cccc(F)c4)c(Cl)c3)c2cc1NC(=O)CCCCC1CCSS1 (stereo not shown) [Example 44] |  |
|  |  |  |  |  | Cc1ccc(Oc2ccc(Nc3c(C#N)cnc4ccc(NC(=O)CC5CCSS5)cc34)cc2C)cn1 (stereo not shown) [Example 55, N-(3-Cyano-4-((3-methyl-4-((6-methylpyridin-3-yl)oxy)phenyl)amino)quinolin-6-yl)-2-(1,2-dithiolan-3-yl)acetamide] | IC50 (EGFR WT; read-out: IC50 Activity level EGFR WT, KinaseSeeker, Table 18): > 10000 nM; IC50 (EGFR (L858R) [2]; [3]): > 10000 nM; IC50 (HER2; read-out: IC50 Activity level HER2, KinaseSeeker, Table 18): > 10000 nM |
|  |  |  |  |  | CC(=O)Nc1ccc2ncc(C#N)c(Nc3ccc(OCc4cccc(F)c4)c(Cl)c3)c2c1 [Example 58, N-(4-((3-Chloro-4-((3-fluorobenzyl)oxy)phenyl)amino)-3-cyanoquinolin-6-yl)acetamide] | IC50 (EGFR (L858R) [2]; [3]): > 10000 nM |
|  |  | 100 to 999 nM | 1 to 99 nM |  | CC(=O)SCC(CSC(C)=O)C(=O)Nc1ccc2ncc(C#N)c(Nc3ccc(OCc4cccc(F)c4)c(Cl)c3)c2c1 [Example 60, S,S′-(2-((4-((3-Chloro-4-((3-fluorobenzyl)oxy)phenyl)amino)-3-cyanoquinolin-6-yl)carbamoyl)propane-1,3-diyl)diethanethioate] |  |
| 1 to 99 nM | 1 to 99 nM |  |  |  | CC1(C)OC[C@H](COc2cc3ncc(C#N)c(Nc4ccc(OCc5cccc(F)c5)c(Cl)c4)c3cc2NC(=O)CC2CCSS2)O1 (stereo partly drawn) [Example 79, N-(4-((3-Chloro-4-((3-fluorobenzyl)oxy)phenyl)amino)-3-cyano-7-(((S)-2,2-dimethyl-1,3-dioxolan-4-yl)methoxy)quinolin-6-yl)-2-(1,2-dithiolan-3-yl)acetamide] |  |
| 1 to 99 nM | 1 to 99 nM | 100 to 999 nM | 1 to 99 nM | 100 to 999 nM | N#Cc1cnc2cc(OC[C@H](O)CO)c(NC(=O)C[C@H]3CCSS3)cc2c1Nc1ccc(OCc2cccc(F)c2)c(Cl)c1 [Example 81, N-(4-((3-Chloro-4-((3-fluorobenzyl)oxy)phenyl)amino)-3-cyano-7-((R)-2,3-dihydroxypropoxy)quinolin-6-yl)-2-(1,2-dithiolan-3S-yl) acetamide] | Kd (EGFR E746-A750del): 1 to 99 nM; Kd (EGFR L858R/T790M): > 10000 nM; Kd (EGFR S752-I759del): 1 to 99 nM |
| 1 to 99 nM | 1 to 99 nM | 100 to 999 nM | 1 to 99 nM | 100 to 999 nM | N#Cc1cnc2cc(OC[C@H](O)CO)c(NC(=O)CC3CCSS3)cc2c1Nc1ccc(OCc2cccc(F)c2)c(Cl)c1 (stereo partly drawn) [Example 82, N-(4-((3-Chloro-4-((3-fluorobenzyl)oxy)phenyl)amino)-3-cyano-7-((R)-2,3-dihydroxypropoxy)quinolin-6-yl)-2-(1,2-dithiolan-3-yl)acetamide] | Kd (EGFR E746-A750del): 1 to 99 nM; Kd (EGFR L858R/T790M): > 10000 nM; Kd (EGFR S752-I759del): 1 to 99 nM |
| 1 to 99 nM | 1 to 99 nM | 100 to 999 nM | 1 to 99 nM | 100 to 999 nM | N#Cc1cnc2cc(OC[C@@H](O)CO)c(NC(=O)C[C@@H]3CCSS3)cc2c1Nc1ccc(OCc2cccc(F)c2)c(Cl)c1 [Example 85, N-(4-((3-Chloro-4-((3-fluorobenzyl)oxy)phenyl)amino)-3-cyano-7-((S)-2,3-dihydroxypropoxy)quinolin-6-yl)-2-(1,2-dithiolan-3R-yl)acetamide] | Kd (EGFR E746-A750del): 1 to 99 nM; Kd (EGFR L858R/T790M): > 10000 nM; Kd (EGFR S752-I759del): 1 to 99 nM |
| 1 to 99 nM | 1 to 99 nM | 100 to 999 nM | 1 to 99 nM | 100 to 999 nM | N#Cc1cnc2cc(OC[C@@H](O)CO)c(NC(=O)C[C@H]3CCSS3)cc2c1Nc1ccc(OCc2cccc(F)c2)c(Cl)c1 [Example 86, N-(4-((3-Chloro-4-((3-fluorobenzyl)oxy)phenyl)amino)-3-cyano-7-((S)-2,3-dihydroxypropoxy)quinolin-6-yl)-2-(1,2-dithiolan-3S-yl)acetamide] | Kd (EGFR E746-A750del): 1 to 99 nM; Kd (EGFR L858R/T790M): > 10000 nM; Kd (EGFR S752-I759del): 1 to 99 nM |
| 1 to 99 nM | 1 to 99 nM |  |  |  | CC(=O)SCC(CSC(C)=O)C(=O)Nc1cc2c(Nc3ccc(OCc4cccc(F)c4)c(Cl)c3)c(C#N)cnc2cc1OC[C@H](O)CO [Example 94, (R)—S,S′-(2-((4-((3-Chloro-4-((3-fluorobenzyl)oxy)phenyl)amino)-3-cyano-7-(2,3-dihydroxypropoxy)quinolin-6-yl)carbamoyl)propane-1,3-diyl)diethanethioate] |  |
|  |  | 100 to 999 nM | 100 to 999 nM | 100 to 999 nM | COc1cc2ncnc(Nc3ccc(Oc4ccc(C)nc4)c(C)c3)c2cc1NC(=O)C1CSSC1 [Example 104, N-(7-Methoxy-4-((3-methyl-4-((6-methylpyridin-3-yl)oxy)phenyl)amino)quinazolin-6-yl)-1,2-dithiolane-4-carboxamide] |  |
|  |  | 1 to 99 nM | 1 to 99 nM |  | COc1cc2ncnc(Nc3ccc(OCc4cccc(F)c4)c(Cl)c3)c2cc1NC(=O)C(CSC(C)=O)CSC(C)=O [Example 109, S,S′-(2-((4-((3-Chloro-4-((3-fluorobenzyl)oxy)phenyl)amino)-7-methoxyquinazolin-6-yl)carbamoyl)propane-1,3-diyl)diethanethioate] |  |
|  |  | 1 to 99 nM | 1 to 99 nM |  | COc1cc2ncnc(Nc3ccc(OCc4cccc(F)c4)c(Cl)c3)c2cc1NC(=O)C1CSSC1 [Example 110, N-(4-((3-Chloro-4-((3-fluorobenzyl)oxy)phenyl)amino)-7-methoxyquinazolin-6-yl)-1,2-dithiolane-4-carboxamide] |  |

| Structure (SMILES) | Kd (EGFR WT (wild type EGFR)) | Kd (EGFR (L858R) [1]) | IC50 (EGFR WT) | IC50 (EGFR (L858R) [2]) | IC50 (HER2) | further results |
| --- | --- | --- | --- | --- | --- | --- |
| CCOc1cc2ncc(C#N)c(Nc3ccc(OCc4cccc(F)c4)c(Cl)c3)c2cc1NC(=O)C(CSC(C)=O)CSC(C)=O [Example 34] | 1 to 99 nM | 1 to 99 nM | 100 to 999 nM | 1 to 99 nM | 100 to 999 nM | Kd (EGFR E746-A750del): 100 to 999 nM; Kd (EGFR L858R/T790M): > 10000 nM; Kd (EGFR S752-I759del): 100 to 999 nM |
